Experimental data as given in patent US20240344241A1, “PROTEINACEOUS MOLECULES AND USES THEREFOR” (THE UNIVERSITY OF QUEENSLAND, priority 2021, published 2024).
Bridge positions count the residues as written; N and C are the ends. Peptide text beside a SMILES is read from it.

What was measured:
[1] = biological target: T1, biotinylated human β-FXIIa (Homo sapiens, UniProt P00748); test: Surface plasmon resonance binding to FXIIa
T1 construct: purchased Molecular Innovations
Procedure: Binding kinetics of each peptide towards biotinylated human β-FXIIa (Molecular Innovations) and non-labelled zymogen FXII (Haematologic Technologies) were determined using a Biacore T200 machine (Cytiva). For β-FXIIa binding measurements, the running buffer was HBS-EP+(10 mM HEPES, 150 mM NaCl, 3 mM EDTA and 0.05% (v/v) surfactant P20, pH 7.4). Biotinylated β-FXIIa was immobilized on a Sensor Chip CAP (Cytiva) using Biotin CAPture Reagent (Cytiva). A series of concentrations of each peptide were injected as analyte and the binding kinetics were modelled using a 1:1 binding model. Regeneration of sensor surface was performed after each measurement cycle. For FXII binding measurements, the running buffer was PBST (137 mM NaCl, 2.7 mM KCl, 10 mM Na2HPO4, 1.8 mM KH2PO4, 0.05% Tween-20). Non-labelled FXII was immobilized on a Sensor Chip CM5 (Cytiva) using Amine Coupling Kit (Cytiva), achieving a final immobilization level of 2500 RU. Each peptide was flowed through immobilized FXII at 5 μM for 60 s and allowed dissociation for 150 s.

Human trypsin = biological target: T2, Human trypsin (Homo sapiens, UniProt P07477); test: Trypsin competitive inhibition assay; assay type: biochemical; details: Table 10; read-out: Ki Trypsin
T2 construct: purchased Sigma-Aldrich; host or cells: purified from human tissue
Procedure: (§1) The activity of acyclic and cyclic MCoFx1-5 and analogues thereof was assessed in competitive inhibition assays, as previously described in Swedberg et al. (2016) J Med Chem, 59: 7287-7292. Human β-FXIIa was obtained from Molecular Innovations, together with human FXa, human FXIa, human α-thrombin, and human plasma kallikrein. Human cationic trypsin and human plasmin were obtained from Sigma-Aldrich, and recombinant human matriptase was sourced from R&D Systems. Recombinant human urokinase (uPA) and recombinant human tissue plasminogen activator (tPA) were expressed in Expi293 cells, as previously described in Li et al. (2019) Chembiochem, 20: 46-50. FXIIa inhibition assays were performed in clear, low-binding 96-well plates using 250 μL (final volume) of assay buffer (0.1 M Tris-HCl pH 8.0, 0.1 M NaCl, 10 mM CaCl2 and 0.005% Triton X-100). Inhibitors were serially diluted and incubated with 10 nM FXIIa at room temperature to reach equilibrium. After adding 100 μM Ac-QRFR-pNA substrate (KM=162 μM), enzymatic activity was measured by monitoring release of the pNA moiety using a TECAN infinite M1000 Pro plate reader (A=405 nm, reading interval, 10 s; assay time course, 7 min). Assays were conducted in three times in duplicate. Substrate kinetic constants (Michaelis-Menten) and inhibition constants (Morrison K) were determined by non-linear regression using Prism 7 (GraphPad). Selectivity assays with off-target proteases were performed in a similar way, except that different concentrations of enzyme and substrate were used, as indicated in Table 16. For assays using a fluorescent substrate (peptide-4-methylcoumaryl-7-amide, MCA), black low-binding 96-well plates were used and activity was measured using a TECAN infinite M1000 pro plate reader (λex 360 nm, λem 460 nm, reading interval, 30 s; assay time course, 5-30 min).

Rec. human matriptase = biological target: T3, Rec. human matriptase (Homo sapiens, UniProt Q9Y5Y6); test: Matriptase inhibition assay; assay type: biochemical; details: Table 10; read-out: Ki Matriptase
T3 construct: purchased R&D Systems
T3 sequence (Q9Y5Y6 615-855 limits assumed): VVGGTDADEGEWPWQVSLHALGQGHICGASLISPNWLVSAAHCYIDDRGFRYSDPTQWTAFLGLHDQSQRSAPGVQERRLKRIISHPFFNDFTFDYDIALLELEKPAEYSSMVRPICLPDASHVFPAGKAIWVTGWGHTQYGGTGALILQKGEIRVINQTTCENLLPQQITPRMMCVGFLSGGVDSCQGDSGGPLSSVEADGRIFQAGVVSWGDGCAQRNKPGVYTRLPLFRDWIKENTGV
Procedure: as §1

T1 sequence (P00748 373-615 limits assumed, other chains not shown): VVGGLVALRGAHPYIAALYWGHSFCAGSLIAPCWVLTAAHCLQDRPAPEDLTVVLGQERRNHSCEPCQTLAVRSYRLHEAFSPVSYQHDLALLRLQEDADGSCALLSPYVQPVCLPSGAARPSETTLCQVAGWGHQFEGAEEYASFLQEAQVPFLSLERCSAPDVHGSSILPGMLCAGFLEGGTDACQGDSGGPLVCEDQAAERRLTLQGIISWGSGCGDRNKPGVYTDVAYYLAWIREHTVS

In the case of `CC[C@H](C)[C@@H]1NC(=O)CNC(=O)CNC(=O)[C@H](CC(=O)O)NC(=O)[C@H](Cc2ccc(O)cc2)NC(=O)CNC(=O)[C@H](CO)NC(=O)CNC(=O)[C@@H]2CSSC[C@@H]3NC(=O)[C@H](CC(=O)O)NC(=O)[C@H](CO)NC(=O)[C@H](CC(=O)O)NC(=O)[C@H](CCCNC(=N)N)NC(=O)[C@H](CCCNC(=N)N)NC(=O)[C@@H]4CSSC[C@H](NC(=O)[C@H]([C@@H](C)CC)NC(=O)[C@H](CSSC[C@H](NC1=O)C(=O)N1CCC[C@H]1C(=O)N[C@@H](CCCNC(=N)N)C(=O)N[C@@H]([C@@H](C)CC)C(=O)NCC(=O)N[C@@H](CCCNC(=N)N)C(=O)N[C@@H](CC(C)C)C(=O)N4)NC(=O)[C@H](C)NC(=O)CNC(=O)[C@@H]1CCCN1C3=O)C(=O)N[C@@H](CCCNC(=N)N)C(=O)N[C@@H](C)C(=O)N[C@@H]([C@@H](C)O)C(=O)N[C@@H](CCCNC(=N)N)C(=O)N[C@@H](Cc1ccccc1)C(=O)N2` [MCoFx1 cyclic] (cyclo(ACICRATRFCGSGYDGGICPRIGRLCRRDSDCPG); disulfide 2-19, 4-26, 10-32), the Kd ([1]; Table 7, FXIIa, cyclic form of the peptide, read-out: KD (nM) Cyclic) is reported as 0.9 ± 0.04 nM, the “fold higher affinity for FXIIa than MCoTI-II” value ([1]; ratio of KD values) is reported as 60 fold and the Ki (Human trypsin) is reported as 1110 nM. For the same molecule, the Ki (Rec. human matriptase) was 9120 nM.
